Measured values taken from PMC5459853, “Cathepsin S inhibition combines control of systemic and peripheral pathomechanisms of autoimmune tissue injury” (Scientific Reports, 2017).

Legend:
[1] = extensive screening studies in mice, rats, monkeys and humans preceding clinical trial NCT01701985; cited from earlier work
[2] = Acute in vivo pharmacodynamics: splenic p10 induction after oral gavage; set-up: species or system BALB/c mice; conditions: BALB/c, mouse, plasma; oral gavage 1 mg/kg; read-out: plasma concentration of the inhibitor at maximal p10 induction
Procedure: (§1) For the determination of in-vivo enzyme inhibition activity of Cat-S by RO5459072 BALB/c mice were used. After oral dosing of 0.1 mg/kg to 100 mg/kg of RO5459072, mice were sacrificed after 7 hours and spleens harvested. Invariant chain was quantified by western blot from mouse splenocyte supernatants loaded onto 10% SDS-PAGE gel. Upon transfer onto a nitrocellulose membrane rabbit anti-CD74 (BD Biosciences) was used.
(§2) Supplementary figure 1. Biochemical and pharmacological profile of R05459072. (A) Upregulation of invariant chain p10 levels in human B-cells was estimated by p10 ELISA, upon treatment with increasing concentration of RO5459072. […]
(§3) upregulation in B-cells derived from 6 healthy volunteers. (B) Determination of KM for the fluorogenic substrate Z-Phe-Arg-AMC. (C) Progress curves of hydrolysis of 10 µM Z-Phe-Arg-AMC by 10 nM Cat-S in the presence of no (black dots) or increasing concentration of RO5459072. A linear equation was fitted to the data to determine the slope (solid lines). […]
(§4) the residuals of the fit to the data. (D) Secondary plot of the slopes from panel B as function of RO5459072 concentration (dots with color coding from panel B). The Morrison equation was […]
(§5) active Cat-S converged to [E]0 = 6.9 nM). The dashed red lines indicate the 95 % confidence intervals of the fit to the data. (E) Pharmacodynamics of R05459072 was determined in C57Bl6 mice with increasing amounts of compound as single dose. Plasma levels of compounds were correlated to the upregulation of p10 in spleenocytes.
(§6) Supplementary figure 2. FACS gating strategies used for the different splenic immune cell populations. (A-C) Activated dendritic cells CD11c+CD11b+MHC-II, (D-F) activated macrophages CD11c+F480+MHC-II and (G-H) plasma cells CD138+κ-light chain+
(§7) Supplementary figure 3. Plasma IgG isotypes in MRL-(Fas)lpr mice. Plasma levels of IgG1 (A), IgG2a (B), and IgG2b (C) were determined by ELISA at different time points from the initiation (week 11) to the end of treatment (week 19). Data are expressed as means ± SEM (n=8 to 10 in […]

[3] = target: T1, Cat-S (splenic p10 induction) (Mus musculus, UniProt O70370); assay: as above; set-up: species or system BALB/c mice
T1 construct: from tissue; host or cells: mouse spleen / splenocytes after oral dosing
Procedure: as §1, §2, §3, §4, §5, §6, §7

Human Cat-K = target: T2, Human Cat-K (Homo sapiens, UniProt P43235); assay: Enzymatic isoform-selectivity assay, Cat-K; assay type: biochemical
T2 sequence (P43235 115-329): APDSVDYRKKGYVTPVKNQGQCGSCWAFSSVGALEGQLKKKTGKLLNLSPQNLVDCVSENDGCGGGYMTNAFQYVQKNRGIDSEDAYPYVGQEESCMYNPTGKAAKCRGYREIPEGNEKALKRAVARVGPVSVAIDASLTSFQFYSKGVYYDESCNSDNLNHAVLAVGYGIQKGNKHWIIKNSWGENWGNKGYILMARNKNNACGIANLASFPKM
Procedure: (§8) RO5459072 was provided by F. Hoffmann-La Roche, Ltd., Basel, Switzerland. It is a competitive inhibitor of the active site of Cat-S and its nitrile function allows covalent reversible inhibition of Cat-S. The synthesis of RO5459072 has been described in WO 2010121918 and WO 2013068434. Recombinant cathepsins were produced in-house or were purchased from commercial vendors. Initial enzymatic assays to determine isoform-selectivity in vitro were performed as previously described, [23]. […] For this the Cat-S-dependent hydrolysis of the fluorogenic substrate Z-Phe-Arg-AMC (Sigma Aldrich) was followed at various inhibitor concentrations. The active fraction of Cat-S was detemined as 70% with a HPLC assay measuring modification of Cat-S with the covalent inhibitor LHVS. The buffer (100 mM potassium phosphate, 50 mM NaCl, 5 mM EDTA, 5 mM TCEP, pH 6) was thoroughly degassed prior to perfoming measurements to prevent oxidation of the catalytic cystein residue by dissolved oxygen. For the Ki-determination the substrate was employed at 10 µM = KM. All kinetic measurements were performad on a SFM-3000 stopped-flow instrument (Bio-Logic Science Instruments) and data were analyzed with GraphPad Prism v5.

Human Cat-S = Human Cat-S (Homo sapiens, UniProt P25774); assay: Enzymatic isoform-selectivity assay, human Cat-S; assay type: biochemical; conditions: read-out: apparent IC50, human Cat-S
Procedure: as §8

[4] = system: diversity panel consisting of nearly 100 receptor binding and enzymatic assays; assay: Diversity panel of receptor binding and enzymatic assays; conditions: 10 µM concentration; data not shown

Human Cat-S, sequence (P25774 115-331): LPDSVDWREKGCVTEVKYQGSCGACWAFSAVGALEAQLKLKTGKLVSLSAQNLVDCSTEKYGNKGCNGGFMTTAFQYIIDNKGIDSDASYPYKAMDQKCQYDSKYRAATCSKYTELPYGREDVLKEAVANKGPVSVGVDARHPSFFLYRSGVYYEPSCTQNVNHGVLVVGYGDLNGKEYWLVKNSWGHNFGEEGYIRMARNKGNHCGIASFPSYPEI

- concentration at 7 h [2]: 17 nM
- dose of maximal splenic p10 induction ([3]; oral gavage, single doses 0.1–100 mg/kg, spleens after 7 hours): 1 mg/kg
- EC50 ([3]; single oral dose, mice, read-out: p10/li in vivo EC50 (plasma level vs p10 upregulation in splenocytes)): 17 nM
- IC50 (Human Cat-K): > 1000 nM
- IC50, Human Cat-K (Human Cat-K): No sub-micro molar inhibition
- IC50 (Human Cat-S): 0.1 nM
- inhibition on diversity panel [4]: ≤ 30%
Compound: Cn1cc(-c2ccc(S(=O)(=O)[C@@H]3C[C@@H](C(=O)NC4(C#N)CC4)N(C(=O)C4(C(F)(F)F)CC4)C3)c(C(F)(F)F)c2)cn1 [RO5459072]
- drug safety signals [1]: did not show any signals regarding drug safety
